Assay results published in PMC6824041, “gem-Difluorobisarylic derivatives: design, synthesis and anti-inflammatory effect” (BMC Chemistry, 2019).

Target: T1, cyclooxygenase-1 (COX-1) (Homo sapiens, UniProt P23219)
T1 construct: gene PTGS1; human recombinant COX-1 stably overexpressed in HEK-293 cells
Test: PGE2 production from added arachidonic acid in HEK-293 cells overexpressing human COX-1
Format: cell-based

T1 sequence (P23219 24-599): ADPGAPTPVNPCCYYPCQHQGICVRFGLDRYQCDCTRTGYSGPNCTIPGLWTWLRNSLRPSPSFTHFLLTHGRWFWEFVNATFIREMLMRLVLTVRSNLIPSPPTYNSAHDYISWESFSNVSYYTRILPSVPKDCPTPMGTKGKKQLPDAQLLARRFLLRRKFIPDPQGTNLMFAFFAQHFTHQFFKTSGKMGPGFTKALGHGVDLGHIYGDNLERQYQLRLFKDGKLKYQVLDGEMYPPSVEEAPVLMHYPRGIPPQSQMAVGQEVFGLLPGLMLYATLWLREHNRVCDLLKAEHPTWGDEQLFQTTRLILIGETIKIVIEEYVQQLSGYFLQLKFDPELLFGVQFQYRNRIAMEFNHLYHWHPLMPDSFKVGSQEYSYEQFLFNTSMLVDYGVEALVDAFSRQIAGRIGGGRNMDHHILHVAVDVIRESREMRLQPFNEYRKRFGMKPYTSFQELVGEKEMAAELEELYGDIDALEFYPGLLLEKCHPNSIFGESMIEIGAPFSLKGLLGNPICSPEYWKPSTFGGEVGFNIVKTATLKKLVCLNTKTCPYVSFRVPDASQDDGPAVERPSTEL

SMILES: Cc1cc(C(=O)O)c(C(F)(F)c2cccc(C(C)C)c2)cc1C [A5, 2-(difluoro(3-isopropylphenyl)methyl)-4,5-dimethylbenzoic acid]
- IC50: 5.2 µM
